Results on one compound are retold here after article PMC10557102 (Pharmacology Research & Perspectives, 2023).

Like-named read-outs stand apart in the source and are kept apart here.

The target in one data set is T1, CYP1A2 (Homo sapiens, UniProt P05177).
T1 sequence (P05177 1-516): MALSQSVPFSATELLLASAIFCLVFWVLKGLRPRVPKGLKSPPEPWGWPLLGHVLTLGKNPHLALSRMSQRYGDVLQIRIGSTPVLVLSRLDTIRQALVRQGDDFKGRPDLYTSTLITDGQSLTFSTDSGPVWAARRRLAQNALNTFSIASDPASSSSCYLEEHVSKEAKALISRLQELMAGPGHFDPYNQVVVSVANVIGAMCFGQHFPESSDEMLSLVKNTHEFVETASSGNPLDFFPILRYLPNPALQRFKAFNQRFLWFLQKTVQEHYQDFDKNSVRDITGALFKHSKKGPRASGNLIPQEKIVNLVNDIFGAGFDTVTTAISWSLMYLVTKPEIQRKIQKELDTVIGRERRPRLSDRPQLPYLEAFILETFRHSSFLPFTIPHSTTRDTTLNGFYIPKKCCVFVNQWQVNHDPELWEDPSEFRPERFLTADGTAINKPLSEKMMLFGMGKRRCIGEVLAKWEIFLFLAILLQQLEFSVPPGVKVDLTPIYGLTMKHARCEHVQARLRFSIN
As to the kind of experiment: Competitive. In kind it is in vitro ADME.

In data set [1] the target is T2, CYP2A6 (Homo sapiens, UniProt P11509).
T2 sequence (P11509 1-494): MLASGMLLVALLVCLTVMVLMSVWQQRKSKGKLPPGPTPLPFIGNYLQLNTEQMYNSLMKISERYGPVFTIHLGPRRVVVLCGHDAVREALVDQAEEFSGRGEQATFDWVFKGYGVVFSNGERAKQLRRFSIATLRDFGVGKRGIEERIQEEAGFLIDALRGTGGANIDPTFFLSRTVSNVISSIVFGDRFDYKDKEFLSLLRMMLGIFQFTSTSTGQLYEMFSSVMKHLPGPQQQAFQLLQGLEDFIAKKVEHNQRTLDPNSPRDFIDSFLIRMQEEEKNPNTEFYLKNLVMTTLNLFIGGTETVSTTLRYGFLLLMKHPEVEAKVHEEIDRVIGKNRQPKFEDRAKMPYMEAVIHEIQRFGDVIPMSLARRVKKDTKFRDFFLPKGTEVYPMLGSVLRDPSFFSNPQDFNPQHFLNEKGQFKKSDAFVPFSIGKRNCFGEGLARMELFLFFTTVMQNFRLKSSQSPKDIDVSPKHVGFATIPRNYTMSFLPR
The data set is described as follows: Competitive. The format is in vitro ADME.

Data set [2] has as its target T3, CYP2B6 (Homo sapiens, UniProt P20813).
T3 sequence (P20813 1-491): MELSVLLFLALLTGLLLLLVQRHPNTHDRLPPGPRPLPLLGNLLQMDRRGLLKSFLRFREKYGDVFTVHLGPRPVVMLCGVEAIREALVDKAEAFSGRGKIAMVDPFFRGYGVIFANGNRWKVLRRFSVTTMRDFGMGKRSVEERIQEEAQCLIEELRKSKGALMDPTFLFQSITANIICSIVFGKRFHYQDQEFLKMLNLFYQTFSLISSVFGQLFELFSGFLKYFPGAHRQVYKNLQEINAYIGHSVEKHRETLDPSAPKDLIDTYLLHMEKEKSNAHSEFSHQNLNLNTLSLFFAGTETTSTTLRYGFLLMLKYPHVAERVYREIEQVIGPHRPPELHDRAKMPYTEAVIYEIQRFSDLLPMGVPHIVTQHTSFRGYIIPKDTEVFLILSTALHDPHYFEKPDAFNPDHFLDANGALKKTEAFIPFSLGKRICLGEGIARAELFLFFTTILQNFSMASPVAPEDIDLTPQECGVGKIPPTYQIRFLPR
The data set is described as follows: Competitive. The format is in vitro ADME.

Data set [3] deals with CYP2C9 (Homo sapiens, UniProt P11712). As to the kind of experiment: Competitive. The format is in vitro ADME.
Sequence of CYP2C9 (Homo sapiens, UniProt P11712) (P11712 whole entry): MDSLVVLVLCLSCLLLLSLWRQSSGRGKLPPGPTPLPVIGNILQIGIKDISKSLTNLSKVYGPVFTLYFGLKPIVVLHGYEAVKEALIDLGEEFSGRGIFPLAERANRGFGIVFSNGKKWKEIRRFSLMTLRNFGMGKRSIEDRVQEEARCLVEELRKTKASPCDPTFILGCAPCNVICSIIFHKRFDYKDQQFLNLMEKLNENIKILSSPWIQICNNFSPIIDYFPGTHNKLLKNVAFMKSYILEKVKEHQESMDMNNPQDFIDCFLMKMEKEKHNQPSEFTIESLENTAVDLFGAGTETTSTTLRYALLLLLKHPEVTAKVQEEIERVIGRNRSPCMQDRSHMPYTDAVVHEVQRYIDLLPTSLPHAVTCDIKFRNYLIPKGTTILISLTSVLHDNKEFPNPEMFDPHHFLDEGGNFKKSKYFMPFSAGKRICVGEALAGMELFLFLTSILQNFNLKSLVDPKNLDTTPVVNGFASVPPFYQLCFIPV
Data set [4] addresses T4, CYP2D6 (Homo sapiens, UniProt P10635). As to the kind of experiment: Competitive. In kind it is in vitro ADME.
A further data set concerns the target CYP3A4 (Homo sapiens, UniProt P08684). As to the kind of experiment: Competitive. In kind it is in vitro ADME.
In data set [5] the target is T2, CYP2A6. The data set is described as follows: Time-dependent. The format is in vitro ADME. Conditions: 30 min pre‐incubation with/without NADPH; coumarin 7‐hydroxylation.
The target of data set [6] is T3, CYP2B6. As to the kind of experiment: Time-dependent. The format is in vitro ADME. Conditions: 30 min pre‐incubation with/without NADPH; bupropion hydroxylation.
In another data set the target is T5, CYP2C8 (Homo sapiens, UniProt P10632).
T5 sequence (P10632 1-490): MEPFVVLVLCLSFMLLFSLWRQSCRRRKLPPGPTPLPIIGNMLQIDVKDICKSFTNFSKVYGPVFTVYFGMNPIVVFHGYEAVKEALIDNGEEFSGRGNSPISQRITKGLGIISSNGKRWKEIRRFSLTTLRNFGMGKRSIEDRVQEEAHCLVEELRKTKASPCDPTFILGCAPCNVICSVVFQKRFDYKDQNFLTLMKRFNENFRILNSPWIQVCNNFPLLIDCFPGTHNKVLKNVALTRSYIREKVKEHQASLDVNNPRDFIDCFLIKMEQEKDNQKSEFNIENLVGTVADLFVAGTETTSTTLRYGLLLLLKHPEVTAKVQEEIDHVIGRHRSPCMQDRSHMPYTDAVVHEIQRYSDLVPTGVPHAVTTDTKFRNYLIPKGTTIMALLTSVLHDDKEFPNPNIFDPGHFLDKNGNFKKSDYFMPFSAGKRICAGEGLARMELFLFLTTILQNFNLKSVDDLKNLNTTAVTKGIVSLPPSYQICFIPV
As to the kind of experiment: Time-dependent. The format is in vitro ADME. Conditions: 30 min pre‐incubation with/without NADPH; paclitaxel 6α‐hydroxylation.

For data set [7], the system named is CYP2C9. The data set is described as follows: Time-dependent. In kind it is in vitro ADME, human. Conditions: 30 min pre‐incubation with/without NADPH; diclofenac 4′‐hydroxylation.
Data set [8] deals with T4, CYP2D6. As to the kind of experiment: Time-dependent. In kind it is in vitro ADME. Conditions: 30 min pre‐incubation with/without NADPH; dextromethorphan N‐demethylation.
Data set [9] deals with CYP2C9.

Sequence of CYP3A4 (P08684 whole entry): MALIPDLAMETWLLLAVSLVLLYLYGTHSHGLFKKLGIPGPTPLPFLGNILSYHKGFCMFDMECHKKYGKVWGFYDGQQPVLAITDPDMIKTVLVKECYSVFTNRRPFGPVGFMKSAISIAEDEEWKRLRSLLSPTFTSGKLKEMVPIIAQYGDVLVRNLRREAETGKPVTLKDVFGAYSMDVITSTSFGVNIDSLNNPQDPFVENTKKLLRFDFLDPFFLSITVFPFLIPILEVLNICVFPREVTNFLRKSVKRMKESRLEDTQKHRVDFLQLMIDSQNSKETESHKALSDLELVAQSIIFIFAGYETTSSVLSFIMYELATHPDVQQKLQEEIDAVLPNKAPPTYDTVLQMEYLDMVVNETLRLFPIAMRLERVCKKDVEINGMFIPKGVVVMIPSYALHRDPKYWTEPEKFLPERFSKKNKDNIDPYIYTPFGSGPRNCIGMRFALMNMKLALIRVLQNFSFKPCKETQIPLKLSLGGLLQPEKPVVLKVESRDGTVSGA
T4 sequence (P10635 whole entry): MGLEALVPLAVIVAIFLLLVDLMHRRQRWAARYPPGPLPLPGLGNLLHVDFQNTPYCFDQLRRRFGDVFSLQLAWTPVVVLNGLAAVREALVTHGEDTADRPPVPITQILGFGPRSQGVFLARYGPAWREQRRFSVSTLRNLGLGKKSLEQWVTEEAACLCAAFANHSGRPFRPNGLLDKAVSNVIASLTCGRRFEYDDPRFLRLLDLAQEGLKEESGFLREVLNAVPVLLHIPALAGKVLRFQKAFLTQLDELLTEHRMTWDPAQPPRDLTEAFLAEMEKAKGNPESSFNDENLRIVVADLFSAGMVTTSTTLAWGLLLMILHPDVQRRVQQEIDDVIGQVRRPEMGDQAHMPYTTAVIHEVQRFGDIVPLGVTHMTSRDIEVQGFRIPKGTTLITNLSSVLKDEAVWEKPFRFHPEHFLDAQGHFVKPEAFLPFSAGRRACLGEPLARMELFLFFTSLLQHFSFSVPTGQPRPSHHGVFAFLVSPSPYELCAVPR

For `Cc1ccc(C(=O)N2CCOC[C@H]2Cc2cccc(-n3nccn3)c2)c(-n2nccn2)c1` [nivasorexant], the IC50 on CYP1A2 is greater than 100 µM; on CYP2A6 [1], greater than 100 µM; on CYP2B6 [2], greater than 100 µM; at CYP2C9 [3], 8.6 µM; on CYP2D6 [4], greater than 100 µM; at CYP3A4, 44 µM. The IC50 is 19 to 44 µM at CYP3A4 (IC50 (range over both probe substrates), midazolam and testosterone as probes); 19 µM at CYP3A4 (IC50, human liver microsomes, midazolam 1′‐hydroxylation). The same compound gave an inhibition constant (Ki) on CYP2C9 [3] of 5 µM. In addition, the IC50 shift result at CYP2A6 [5] is “none”; at CYP2B6 [6], “none”; on CYP2C8, “no effect and none”; in the data set on CYP2C9 [7], “no effect and no pre‐incubation effect and none”; at CYP2D6 [8], “no effect and none”. Also, the “CYP2C9 inhibitor classification according to regulatory guidance” value in the data set with CYP2C9 [9] (after 8 days / repeated 100 mg b.i.d., steady state) is “weak (≥1.25‐ to <2‐fold)”. Also, the “perpetrator DDI potential with respect to CYP2C9 (in words)” value in the data set on CYP2C9 [9] (initial administration on Day 8, 90% CIs of GMR within 0.8–1.25) is listed as “lack of perpetrator DDI potential”.

As a reminder, the IC50 is the concentration that gives 50% inhibition. A low value points to greater potency. As a reminder, the Ki is a measure of affinity in units of concentration, obtained from inhibition or displacement. A lower Ki goes with higher affinity.
